Calls of active or inactive are those of the source. How the calls were made is not given here.
Test system: rodent carcinogenicity bioassays, tumor incidence
Assay: CCRIS carcinogenicity studies
Summary of the method: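 Archive of carcinogenicity, mutagenicity, tumor promotion and tumor inhibition results drawn from journals, NCI reports and other sources, expert-reviewed; covers 1985-2011 and is no longer updated.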

## CCC(C)(CC)c1cc(NC(=O)c2c(OC)cccc2OC)on1
Species: Mouse, Strain/Sex: B6C3F1/Male (60/Group), Route: Oral, Dose: 0, 100, 1000, 12,500 ppm of 85% isoxaben (plus 10.5% closely related isomers) in diet for 2 yr, study duration 2 yr, Dose: 0, 100, 1000, 12,500 ppm of 85% isoxaben (plus 10.5% closely related isomers) in diet for 2 yr, study duration 2 yr, Tumor Site: Type of Lesion: Liver: Hepatocellular adenomas (increased incidence and multiplicity at 12,500 ppm)
  carcinogen call: active; positive
Species: Rat, Strain/Sex: Fischer 344/Female (60/Group), Route: Oral, Dose: 0, 125, 1250, 12,500 ppm of 85% isoxaben (plus 10.5% closely related isomers) in diet for 2 yr, study duration 2 yr, Dose: 0, 125, 1250, 12,500 ppm of 85% isoxaben (plus 10.5% closely related isomers) in diet for 2 yr, study duration 2 yr
  carcinogen call: inactive; negative
Species: Rat, Strain/Sex: Fischer 344/Male (60/Group), Route: Oral, Dose: 0, 125, 1250, 12,500 ppm of 85% isoxaben (plus 10.5% closely related isomers) in diet for 2 yr, study duration 2 yr, Dose: 0, 125, 1250, 12,500 ppm of 85% isoxaben (plus 10.5% closely related isomers) in diet for 2 yr, study duration 2 yr, Tumor Site: Type of Lesion: Adrenal gland: pheochromocytoma (highest dose)
  carcinogen call: active; positive

## O=C(c1ccccc1)c1ccccc1
Species: Mouse, Strain/Sex: B6C3F1/Female, Route: Oral, Dose: 0, 312, 625, 1250 ppm in feed for 105 wks, Dose: 0, 312, 625, 1250 ppm in feed for 105 wks, Tumor Site: Type of Lesion: Histiocytic sarcoma: (0/50, 0/50, 5/50, 3/50) Liver: Hepatocellular adenoma (5/50, 4/50, 10/50, 8/50)
  carcinogen call: active; positive (ntp describes as some evidence); ntp describes results in liver as equ
Species: Mouse, Strain/Sex: B6C3F1/Male, Route: Oral, Dose: 0, 312, 625, 1250 ppm in feed for 105 wks, Dose: 0, 312, 625, 1250 ppm in feed for 105 wks, Tumor Site: Type of Lesion: Liver: Hepatocellular adenoma (11/50, 15/50, 23/50, 23/50), Hepatocellular adenoma, hepatocellular carcinoma, or hepatob
  carcinogen call: active; positive (ntp describes as some evidence)
Species: Rat, Strain/Sex: F344/N/Female, Route: Oral, Dose: 0, 312, 625, 1250 ppm in feed for 105 wks, Dose: 0, 312, 625, 1250 ppm in feed for 105 wks, Tumor Site: Type of Lesion: Mononuclear cell leukemia: (19/50, 25/50, 30/50, 29/50) Histiocytic sarcoma: (0/50, 0/50, 1/50, 2/50) Mammary gland: fib
  carcinogen call: equivocal; mononuclear cell leukemia and histiocytic sarcoma incidences describe
Species: Rat, Strain/Sex: F344/N/Male, Route: Oral, Dose: 0, 312, 625, 1250 ppm in feed for 105 wks, Dose: 0, 312, 625, 1250 ppm in feed for 105 wks, Tumor Site: Type of Lesion: Kidney: Renal tubule adenoma (1/50, 1/10, 2/50, 4/50), Mononuclear cell leukemia: (27/50, 41/50, 39/50, 24/50)
  carcinogen call: active; positive trend for renal tubule adenoma (ntp describes as some evidence); mononu

## C=C(Cl)Cl
Species: FISH, Strain/Sex: SHASTA RAINBOW TROUT/MALE, FEMALE, Route: ORAL, Dose: 0, 2000 PPM IN DIET FOR 18 MO (STUDY DURATION: 18 MO)
  carcinogen call: inactive; negative
Species: MOUSE, Route: INHALATION, Tumor Site: Type of Lesion: KIDNEY, LUNG, LIVER, Tumor Site: Type of Lesion: KIDNEY, LUNG, LIVER
  carcinogen call: active; positive
Species: RAT, Strain/Sex: SPRAGUE-DAWLEY/FEMALE, Route: GAVAGE, Dose: 0, 0.5, 5, 10, 20 MG/KG BW IN OLIVE OIL 1/D 4-5 D/WK FOR 52-59 WK (STUDY DURATION: LIFETIME), Dose: 0, 0.5, 5, 10, 20 MG/KG BW IN OLIVE OIL 1/D 4-5 D/WK FOR 52-59 WK (STUDY DURATION: LIFETIME), Tumor Site: Type of Lesion: [BRAIN WAS ONLY SITE EVALUATED]
  carcinogen call: inactive; negative
Species: RAT, Strain/Sex: SPRAGUE-DAWLEY/FEMALE, Route: INHALATION, Dose: 0, 10, 25, 50, 100, 150 PPM IN AIR 4 HR/D 4-5 D/WK FOR 52 WK (STUDY DURATION: LIFETIME), Dose: 0, 10, 25, 50, 100, 150 PPM IN AIR 4 HR/D 4-5 D/WK FOR 52 WK (STUDY DURATION: LIFETIME), Tumor Site: Type of Lesion: [BRAIN WAS ONLY SITE EVALUATED]
  carcinogen call: inactive; negative
Species: RAT, Strain/Sex: SPRAGUE-DAWLEY/FEMALE, Route: INHALATION, Dose: 0, 100 PPM 4 HR/D 5 D/WK FOR 7 WK THEN 7 HR/D 5 D/WK FOR 8 WK ADMINISTERED TO RAT EMBRYOS BEGINNING ON THE 12TH DAY OF G
  carcinogen call: inactive; negative
Species: RAT, Strain/Sex: SPRAGUE-DAWLEY/FEMALE, Route: INHALATION, Dose: 0, 100 PPM 4 HR/D 5 D/WK FOR 7 WK THEN 7 HR/D 5 D/WK FOR 97 WK ADMINISTERED TO BREEDER RATS (STUDY DURATION: 104 WK)
  carcinogen call: inactive; negative
Species: RAT, Strain/Sex: SPRAGUE-DAWLEY/FEMALE, Route: INHALATION, Dose: 0, 100 PPM 4 HR/D 5 D/WK FOR 7 WK THEN 7 HR/D 5 D/WK FOR 97 WK ADMINISTERED TO RAT EMBRYOS BEGINNING ON 12TH DAY OF GEST, Tumor Site: Type of Lesion: HEMATOPOIETIC SYSTEM: LEUKEMIA
  carcinogen call: active; positive
Species: RAT, Strain/Sex: SPRAGUE-DAWLEY/FEMALE, Route: ORAL, Dose: 0, 50, 100, 200 PPM IN DRINKING WATER FOR 2 YR (STUDY DURATION: 2 YR), Dose: 0, 50, 100, 200 PPM IN DRINKING WATER FOR 2 YR (STUDY DURATION: 2 YR)
  carcinogen call: inactive; negative
Species: RAT, Strain/Sex: SPRAGUE-DAWLEY/MALE, Route: GAVAGE, Dose: 0, 0.5, 5, 10, 20 MG/KG BW IN OLIVE OIL 1/D 4-5 D/WK FOR 52-59 WK (STUDY DURATION: LIFETIME), Dose: 0, 0.5, 5, 10, 20 MG/KG BW IN OLIVE OIL 1/D 4-5 D/WK FOR 52-59 WK (STUDY DURATION: LIFETIME), Tumor Site: Type of Lesion: [BRAIN WAS ONLY SITE EVALUATED]
  carcinogen call: inactive; negative
Species: RAT, Strain/Sex: SPRAGUE-DAWLEY/MALE, Route: INHALATION, Dose: 0, 10, 25, 50, 100, 150 PPM IN AIR 4 HR/D 4-5 D/WK FOR 52 WK (STUDY DURATION: LIFETIME), Dose: 0, 10, 25, 50, 100, 150 PPM IN AIR 4 HR/D 4-5 D/WK FOR 52 WK (STUDY DURATION: LIFETIME), Tumor Site: Type of Lesion: [BRAIN WAS ONLY SITE EVALUATED]
  carcinogen call: inactive; negative
Species: RAT, Strain/Sex: SPRAGUE-DAWLEY/MALE, Route: INHALATION, Dose: 0, 100 PPM 4 HR/D 5 D/WK FOR 7 WK THEN 7 HR/D 5 D/WK FOR 8 WK ADMINISTERED TO RAT EMBRYOS BEGINNING ON THE 12TH DAY OF G
  carcinogen call: inactive; negative
Species: RAT, Strain/Sex: SPRAGUE-DAWLEY/MALE, Route: INHALATION, Dose: 0, 100 PPM 4 HR/D 5 D/WK FOR 7 WK THEN 7 HR/D 5 D/WK FOR 97 WK ADMINISTERED TO RAT EMBRYOS BEGINNING ON 12TH DAY OF GEST
  carcinogen call: inactive; negative
Species: RAT, Strain/Sex: SPRAGUE-DAWLEY/MALE, Route: ORAL, Dose: 0, 50, 100, 200 PPM IN DRINKING WATER FOR 2 YR (STUDY DURATION: 2 YR), Dose: 0, 50, 100, 200 PPM IN DRINKING WATER FOR 2 YR (STUDY DURATION: 2 YR)
  carcinogen call: inactive; negative
Species: RAT, Strain/Sex: SPRAGUE-DAWLEY, Route: INHALATION, Tumor Site: Type of Lesion: MAMMARY GLAND: FIBROADENOMA, CARCINOMA
  carcinogen call: active; positive

## COc1ccc([C@H]2O[C@H]2C)cc1
Species: MOUSE, Strain/Sex: B6C3F1/MALE, Route: INTRAPERITONEAL, Dose: 0, 0.25, 0.5 UMOL/G BW ONCE (STUDY DURATION: 10-11 MONTHS), Dose: 0, 0.25, 0.5 UMOL/G BW ONCE (STUDY DURATION: 10-11 MONTHS), Tumor Site: Type of Lesion: LIVER: HEPATOMA
  carcinogen call: active; positive
Species: MOUSE, Strain/Sex: CD-1/FEMALE, Route: DERMAL, Dose: 0, 5 UMOL 1X/WK FOR 3 WK BEGINNING 24 HR POST FIRST TPA DOSE (2.5 UG IN 0.1 ML ACETONE), FOLLOWED BY 2.5 UG TPA IN 0.1 M, Tumor Site: Type of Lesion: SKIN: PAPILLOMA
  carcinogen call: active; positive
